In the assay the test system is hyperlipidemia of SD rats. As to the kind of experiment: Therapeutic effect on hyperlipidemia of SD rats (lipid emulsion model). The class given is in vivo. Particulars: for CHO (serum cholesterol) / HDL-C (high density lipoprotein) / LDL-C (low density lipoprotein) / TG (serum triglyceride): 21 days of continuous administration with lipid emulsion, fasted 12 h, X ± SD, 5 animals per group, serum; for reduction ratio of cholesterol (blood lipid-reducing effect) / blood lipid-reducing effect (in words): 21 days; for reduction ratio of cholesterol (blood lipid-reducing effect): (CHO of Model group - CHO of pharmaceutical-administrated group)/CHO of Model group*100%; for blood lipid-reducing effect (in words): hyperlipidemic SD rats, as shown by Table 1. As for the experimental part: 1. Therapeutic Effect on Hyperlipidemia of SD Rats
Preparation process of lipid emulsion: 500 g of lard oil was taken, placed in a container, and heated to melt. When the temperature rose to 100° C., 200 g of cholesterol was added. After complete dissolution, 20 g of propylthiouracil was further added. The resulted mixture was stirred well, and added with 500 ml of Tween 80 after dissolution, resulting in an oil phase. At the same time, 600 mL of distilled water and 400 mL of 1,2-propanediol were taken and heated to 60° C. in a water bath, and then was added with 40 g of sodium deoxycholate. The resulted mixture was stirred well until complete dissolution was achieved, so as to give an aqueous phase. The aqueous phase was added into the oil phase and mixed well to give a lipid emulsion.
Process for modeling: Animals were fed adaptively for 3 days. Then, according to the body weight, 5 animals were selected as control and the remaining animals were intragastrically administered with the lipid emulsion during 9:00 to 11:00 am every day with 1 mL/100 g body weight for 2 weeks. After fasted for 12 hours, 1 mL of blood was collected from the orbits of the animals, and was determined by Hitachi Automatic Biochemical Analyzer 7080 for serum cholesterol (CHO), triglyceride (TG), low density lipoprotein (LDL-C) and high density lipoprotein (HDL-C). The animals having 4-7 mmol/L of CHO were used in the experiments.
The animals were continued with the intragastric administration of the lipid emulsion, and at the same time, the pharmaceutical-administered groups were administrated with the corresponding doses of pharmaceuticals, while the Model group was administrated with an equal volume of the solvent. The animals were administrated with the lipid emulsion in the morning and pharmaceuticals in the afternoon. The animals were measured for the body weight every Monday, and were observed. After 21 days of continuous administration, the animals were fasted for 12 hours. Then, 1 mL of blood was collected from the orbits, and was determined by Hitachi Automated Biochemical Analyzer 7080 for serum cholesterol (CHO), triglyceride (TG), low density lipoprotein (LDL-C) and high density lipoprotein (HDL-C).
The controls used in this experiment comprised Compound A and Simvastatin (also referred to as Sim herein).
The formula for calculating the blood lipid-reducing effect is: (CHO of Model group —CHO of pharmaceutical-administrated group)/CHO of Model group*100%. […] In this experiment, the effects of the compounds obtained herein for regulating blood lipids can be determined by using the blood cholesterol reduction as the main indicator, with reference to the decrease of triglyceride.

Take `Cc1ccc(C)c(OCCCC(C)(C)C(=O)NCC(=O)c2ccc(O)cc2)c1` [Compound A, reference compound]: where the note is “80 mg/kg”, the “CHO (serum cholesterol)” value turned out to be 6.15 ± 2.12 mmol/L, the “HDL-C (high density lipoprotein)” value is listed as 1.41 ± 0.28 mmol/L, the “LDL-C (low density lipoprotein)” value was 4.97 ± 1.07 mmol/L and the “TG (serum triglyceride)” value is recorded as 0.58 ± 0.11 mmol/L. For the same compound, the “reduction ratio of cholesterol (blood lipid-reducing effect)” value (from here on “reduction ratio of cholesterol”) (80 mg/kg) is given as 42.30%.
Consider `CC(=O)c1ccc(NC(=O)C(C)(C)Oc2ccc(Cl)cc2)cc1` [Compound 04], for which, where the note is “80 mg/kg”, the “CHO (serum cholesterol)” value is reported as 4.90 ± 1.09 mmol/L, the “HDL-C (high density lipoprotein)” value came to 2.00 ± 0.52 mmol/L, the “LDL-C (low density lipoprotein)” value came to 3.27 ± 1.34 mmol/L and the “TG (serum triglyceride)” value is given as 0.50 ± 0.15 mmol/L. Further, where the note is “80 mg/kg”, the “blood lipid-reducing effect (in words)” value is “significantly reduce the level of cholesterol” and the “reduction ratio of cholesterol” value stood at 54.03%.
`CCC(C)(C)C(=O)O[C@H]1C[C@@H](C)C=C2C=C[C@H](C)[C@H](CC[C@@H]3C[C@@H](O)CC(=O)O3)[C@H]21` [Sim, Simvastatin, reference compound]: where the note is “10 mg/kg”, the “CHO (serum cholesterol)” value is recorded as 6.28 ± 0.76 mmol/L, the “HDL-C (high density lipoprotein)” value was found to be 1.65 ± 0.26 mmol/L, the “LDL-C (low density lipoprotein)” value is reported as 4.54 ± 0.36 mmol/L and the “TG (serum triglyceride)” value was found to be 0.60 ± 0.07 mmol/L.
`CC(=O)c1ccc(O)c(NC(=O)C(C)(C)CCCOc2cc(C)ccc2C)c1` [Compound 02]: for the setting “80 mg/kg”, the “CHO (serum cholesterol)” value is recorded as 4.86 ± 1.08 mmol/L, the “HDL-C (high density lipoprotein)” value turned out to be 1.94 ± 0.49 mmol/L, the “LDL-C (low density lipoprotein)” value amounted to 3.18 ± 0.71 mmol/L and the “TG (serum triglyceride)” value was 0.51 ± 0.19 mmol/L. Under “80 mg/kg”, the “blood lipid-reducing effect (in words)” value is “significantly reduce the level of cholesterol” and the “reduction ratio of cholesterol” value was 54.40%.
As to `CC(=O)c1ccc(NC(=O)C(C)(C)CCCOc2cc(C)ccc2C)cc1` [Compound 01], under “80 mg/kg”, the “HDL-C (high density lipoprotein)” value was found to be 2.02 ± 0.27 mmol/L, the “LDL-C (low density lipoprotein)” value is 3.07 ± 1.25 mmol/L, the “TG (serum triglyceride)” value turned out to be 0.47 ± 0.27 mmol/L and the “blood lipid-reducing effect (in words)” value is on record as “significantly reduce the level of cholesterol”. The “reduction ratio of cholesterol” value (80 mg/kg) worked out at 59.75%.
With `CC(=O)c1ccc(O)c(NC(=O)c2cccnc2)c1` [Compound 03], under “80 mg/kg”, the “CHO (serum cholesterol)” value came to 4.56 ± 1.24 mmol/L, the “HDL-C (high density lipoprotein)” value came out at 1.81 ± 0.27 mmol/L, the “LDL-C (low density lipoprotein)” value is listed as 3.14 ± 1.06 mmol/L and the “TG (serum triglyceride)” value worked out at 0.71 ± 0.16 mmol/L. For the same compound, under “80 mg/kg”, the “blood lipid-reducing effect (in words)” value is given as “significantly reduce the level of cholesterol” and the “reduction ratio of cholesterol” value came out at 57.22%.
Consider `CC(=O)c1ccc(O)c(OC(=O)c2cccnc2)c1` [Compound 05], for which, under “80 mg/kg”, the “CHO (serum cholesterol)” value amounted to 4.63 ± 0.41 mmol/L, the “HDL-C (high density lipoprotein)” value came to 1.95 ± 0.50 mmol/L, the “LDL-C (low density lipoprotein)” value is on record as 3.12 ± 0.34 mmol/L and the “TG (serum triglyceride)” value is on record as 0.56 ± 0.23 mmol/L. Also, for the setting “80 mg/kg”, the “blood lipid-reducing effect (in words)” value is on record as “significantly reduce the level of cholesterol” and the “reduction ratio of cholesterol” value was 56.56%.

These data come from patent publication US10800733B2, “Acetophenone compound, preparation method therefor, and application thereof in blood lipid regulation” (Shanghai Bioenergy Medicine Science & Technology Co., Ltd., priority 2017, dated 2020).
